Data on 55 compounds can be found in patent US10065941B2, “Aminotriazine derivative and pharmaceutical composition comprising the same” (Shionogi & Co., Ltd., priority 2013, dated 2018).

Chain of human P2X3 receptor (P56373 whole entry): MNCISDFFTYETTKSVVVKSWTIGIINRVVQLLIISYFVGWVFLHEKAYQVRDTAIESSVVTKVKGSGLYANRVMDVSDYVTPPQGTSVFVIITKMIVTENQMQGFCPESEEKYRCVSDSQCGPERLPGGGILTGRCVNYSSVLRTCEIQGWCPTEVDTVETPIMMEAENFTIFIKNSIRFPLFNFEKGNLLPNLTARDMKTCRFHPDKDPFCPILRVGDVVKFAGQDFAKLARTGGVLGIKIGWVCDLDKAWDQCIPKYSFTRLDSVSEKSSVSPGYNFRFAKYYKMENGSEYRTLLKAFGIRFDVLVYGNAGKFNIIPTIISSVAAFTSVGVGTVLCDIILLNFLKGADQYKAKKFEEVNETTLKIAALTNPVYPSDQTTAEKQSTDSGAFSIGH

The target of the assay is human P2X3 receptor (Homo sapiens (Human), UniProt P56373). In words: Evaluation of human P2X3 receptor inhibitory activity (Test Example 1). In kind it is cell-based. As to conditions: C6BU-1 cell transfected with human P2X3 receptor gene, FLIPR 384. The gist of the method:
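FLIPR calcium read-out: signal taken as peak fluorescence after ATP addition divided by starting fluorescence, and IC50 calculated from it. Compound added 5 min before 150 nM ATP solution (pre-dispense stock) to Fluo-3-AM-loaded C6BU-1 cells stably transfected with human P2X3; HEPES buffer pH 7.5 with probenecid.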
For `CO[C@@H](Cn1c(=O)[nH]/c(=N\c2ccc(Oc3cccc(F)n3)cc2)n(Cc2ccc(Cl)cc2)c1=O)C(=O)O` [Compound I-125], 5 nM corresponded to half-maximal inhibition (IC50). To `COC(=O)[C@@H](C)Cn1c(=O)[nH]/c(=N\c2ccc(Oc3ccccn3)cc2)n(Cc2ccc(Cl)cc2)c1=O` [Compound I-126] belongs 5 nM; to `Cc1ccc(Cn2c(=O)n(CC(C)(C)C(=O)O)c(=O)[nH]/c2=N\c2ccc(Oc3cccc(Cl)n3)cc2)cc1` [Compound I-128], 8 nM; to `COC(=O)[C@H](C)Cn1c(=O)[nH]/c(=N\c2ccc(Oc3ccccn3)cc2)n(Cc2ccc(Cl)cc2)c1=O` [Compound I-131], 8 nM. To `COC(=O)[C@@H](C)Cn1c(=O)[nH]/c(=N\c2ccc(Oc3ccc(OC(F)F)cn3)cc2)n(Cc2ccc(C)cc2)c1=O` [Compound I-132] belongs 8 nM; to `COC(=O)C(C)(C)Cn1c(=O)[nH]/c(=N\c2ccc(Oc3ccc(OC(F)F)cn3)cc2)n(Cc2ccc(C)cc2)c1=O` [Compound I-133], 8 nM; to `C[C@@H](C(=O)O)[C@H](C)n1c(=O)[nH]/c(=N\c2ccc(Oc3cc(C#N)ccn3)cc2)n(Cc2ccc(Cl)cc2)c1=O` [Compound I-134], 7 nM. Under `Cc1ccc(Cn2c(=O)n(C[C@H](C)C(=O)O)c(=O)[nH]/c2=N\c2ccc(Oc3ccc(OC(F)F)cn3)cc2)cc1` [Compound I-135] stands 4 nM; under `Cc1ccc(Cn2c(=O)n(CC(C)(C)C(=O)O)c(=O)[nH]/c2=N\c2ccc(Oc3ccc(OC(F)F)cn3)cc2)cc1` [Compound I-136], 7 nM; under `COC(=O)[C@H](C)[C@H](C)n1c(=O)[nH]/c(=N\c2ccc(Oc3ccc(OC(F)F)cn3)cc2)n(Cc2ccc(C)cc2)c1=O` [Compound I-137], 14 nM. Regarding `Cc1ccc(Cn2c(=O)n([C@@H](C)[C@@H](C)C(=O)O)c(=O)[nH]/c2=N\c2ccc(Oc3ccc(OC(F)F)cn3)cc2)cc1` [Compound I-138], the IC50 stood at 7 nM. To `COC(=O)[C@@H](C)Cn1c(=O)[nH]/c(=N\c2ccc(Oc3cc(OC)ccn3)cc2)n(Cc2ccc(Cl)cc2)c1=O` [Compound I-139] belongs 10 nM; to `COC(=O)[C@H](C)Cn1c(=O)[nH]/c(=N\c2ccc(Oc3ccccn3)cc2)n(Cc2ccc(C)cc2)c1=O` [Compound I-140], 3 nM.

`C[C@H](Cn1c(=O)[nH]/c(=N\c2ccc(Oc3ccccn3)cc2)n(Cc2ccc(Cl)cc2)c1=O)C(=O)O` [Compound I-141] yielded an IC50 of 14 nM. Under `COC(=O)[C@@H](C)Cn1c(=O)[nH]/c(=N\c2ccc(Oc3ccccn3)cc2)n(C[C@H]2CC[C@H](C)CC2)c1=O` [Compound I-142] stands 7 nM. Under `COC(=O)[C@H](Cn1c(=O)[nH]/c(=N\c2ccc(Oc3ccccn3)cc2)n(Cc2ccc(Cl)cc2)c1=O)OC` [Compound I-143] stands 5 nM; under `COC(=O)[C@H](C)[C@H](C)n1c(=O)[nH]/c(=N\c2ccc(Oc3ccccn3)cc2)n(Cc2ccc(Cl)cc2)c1=O` [Compound I-144], 9 nM.

`C[C@@H](Cn1c(=O)[nH]/c(=N\c2ccc(Oc3ccccn3)cc2)n(C[C@H]2CC[C@H](C)CC2)c1=O)C(=O)O` [Compound I-145] returned an IC50 of 6 nM. Under `CO[C@@H](Cn1c(=O)[nH]/c(=N\c2ccc(Oc3ccccn3)cc2)n(Cc2ccc(Cl)cc2)c1=O)C(=O)O` [Compound I-146] stands 5 nM. Under `C[C@@H](C(=O)O)[C@H](C)n1c(=O)[nH]/c(=N\c2ccc(Oc3ccccn3)cc2)n(Cc2ccc(Cl)cc2)c1=O` [Compound I-147] stands 7 nM. Under `Cc1ccc(Cn2c(=O)n(C[C@@H](C)C(=O)O)c(=O)[nH]/c2=N\c2ccc(Oc3ccccn3)cc2)cc1` [Compound I-148] stands 9 nM; under `COC(=O)C(C)(C)Cn1c(=O)[nH]/c(=N\c2ccc(Oc3ccccn3)cc2)n(Cc2ccc(Cl)cc2)c1=O` [Compound I-149], 5 nM. In turn, `COC(=O)C(C)(C)Cn1c(=O)[nH]/c(=N\c2ccc(Oc3ccccn3)cc2)n(Cc2ccc(C)cc2)c1=O` [Compound I-150] registered an IC50 of 4 nM. To `COC(=O)[C@@H](C)[C@@H](C)n1c(=O)[nH]/c(=N\c2ccc(Oc3ccccn3)cc2)n(Cc2ccc(Cl)cc2)c1=O` [Compound I-151] belongs 10 nM; to `C[C@H](C(=O)O)[C@@H](C)n1c(=O)[nH]/c(=N\c2ccc(Oc3ccccn3)cc2)n(Cc2ccc(Cl)cc2)c1=O` [Compound I-152], 6 nM. Under `COC(=O)[C@@H](C)Cn1c(=O)[nH]/c(=N\c2ccc(Oc3ncccc3OC)cc2)n(Cc2ccc(Cl)cc2)c1=O` [Compound I-153] stands 13 nM; under `CC(C)(Cn1c(=O)[nH]/c(=N\c2ccc(Oc3ccccn3)cc2)n(Cc2ccc(Cl)cc2)c1=O)C(=O)O` [Compound I-154], 8 nM. To `Cc1ccc(Cn2c(=O)n(CC(C)(C)C(=O)O)c(=O)[nH]/c2=N\c2ccc(Oc3ccccn3)cc2)cc1` [Compound I-155] belongs 8 nM; to `COc1cccnc1Oc1ccc(/N=c2\[nH]c(=O)n(C[C@H](C)C(=O)O)c(=O)n2Cc2ccc(Cl)cc2)cc1` [Compound I-156], 12 nM; to `COC(=O)C[C@@H](C)n1c(=O)[nH]/c(=N\c2ccc(Oc3ccccn3)cc2)n(Cc2ccc(Cl)cc2)c1=O` [Compound I-157], 5 nM. For `COC(=O)C[C@@H](C)n1c(=O)[nH]/c(=N\c2ccc(Oc3cccc(F)n3)cc2)n(Cc2ccc(Cl)cc2)c1=O` [Compound I-158], the IC50 was determined as 6 nM. Turning to `COC(=O)C(C)(C)Cn1c(=O)[nH]/c(=N\c2ccc(Oc3ncccc3OC)cc2)n(Cc2ccc(Cl)cc2)c1=O` [Compound I-159], the IC50 was found to be 9 nM. Under `COC(=O)C[C@@H](C)n1c(=O)[nH]/c(=N\c2ccc(Oc3ccc(F)cn3)cc2)n(Cc2ccc(Cl)cc2)c1=O` [Compound I-160] stands 5 nM; under `COC(=O)C[C@@H](C)n1c(=O)[nH]/c(=N\c2ccc(Oc3ncccc3F)cc2)n(Cc2ccc(Cl)cc2)c1=O` [Compound I-161], 10 nM.

In turn, `C[C@H](CC(=O)O)n1c(=O)[nH]/c(=N\c2ccc(Oc3cccc(F)n3)cc2)n(Cc2ccc(Cl)cc2)c1=O` [Compound I-163] came in with an IC50 of 8 nM. Under `COc1cccnc1Oc1ccc(/N=c2\[nH]c(=O)n(CC(C)(C)C(=O)O)c(=O)n2Cc2ccc(Cl)cc2)cc1` [Compound I-164] stands 29 nM; under `C[C@H](CC(=O)O)n1c(=O)[nH]/c(=N\c2ccc(Oc3ccc(F)cn3)cc2)n(Cc2ccc(Cl)cc2)c1=O` [Compound I-165], 15 nM. To `C[C@H](CC(=O)O)n1c(=O)[nH]/c(=N\c2ccc(Oc3ncccc3F)cc2)n(Cc2ccc(Cl)cc2)c1=O` [Compound I-166] belongs 13 nM; to `C[C@@H](Cn1c(=O)[nH]/c(=N\c2ccc(Oc3ccc(F)cn3)cc2)n(Cc2ccc(C(F)F)cc2)c1=O)C(=O)O` [Compound I-167], 19 nM; to `C[C@@H](Cn1c(=O)[nH]/c(=N\c2ccc(Oc3cccc(F)n3)cc2)n(Cc2ccc(C(F)F)cc2)c1=O)C(=O)O` [Compound I-168], 12 nM. To `C[C@@H](Cn1c(=O)[nH]/c(=N\c2ccc(Oc3ncccc3F)cc2)n(Cc2ccc(C(F)F)cc2)c1=O)C(=O)O` [Compound I-169] belongs 21 nM; to `CCOC(=O)[C@H]1C[C@H](n2c(=O)[nH]/c(=N\c3ccc(Oc4ccccn4)cc3)n(Cc3ccc(Cl)cc3)c2=O)C1` [Compound I-170], 15 nM. On to `CCOC(=O)[C@H]1C[C@@H](n2c(=O)[nH]/c(=N\c3ccc(Oc4ccccn4)cc3)n(Cc3ccc(Cl)cc3)c2=O)C1` [Compound I-171], for which the IC50 was 9 nM. Under `CCOC(=O)[C@H]1C[C@@H](n2c(=O)[nH]/c(=N\c3ccc(Oc4ccc(Cl)cn4)cc3)n(Cc3ccc(C)cc3)c2=O)C1` [Compound I-173] stands 8 nM. Under `O=c1[nH]/c(=N\c2ccc(Oc3ccccn3)cc2)n(Cc2ccc(Cl)cc2)c(=O)n1[C@H]1C[C@H](C(=O)O)C1` [Compound I-174] stands 6 nM; under `O=c1[nH]/c(=N\c2ccc(Oc3ccccn3)cc2)n(Cc2ccc(Cl)cc2)c(=O)n1[C@H]1C[C@@H](C(=O)O)C1` [Compound I-175], 9 nM; under `CCOC(=O)[C@H]1C[C@H](n2c(=O)[nH]/c(=N\c3ccc(Oc4ccc(F)cn4)cc3)n(Cc3ccc(C)cc3)c2=O)C1` [Compound I-176], 7 nM.

In turn, `CCOC(=O)[C@H]1C[C@@H](n2c(=O)[nH]/c(=N\c3ccc(Oc4ccc(F)cn4)cc3)n(Cc3ccc(C)cc3)c2=O)C1` [Compound I-177] came in with an IC50 of 6 nM. Under `Cc1ccc(Cn2c(=O)n([C@H]3C[C@@H](C(=O)O)C3)c(=O)[nH]/c2=N\c2ccc(Oc3ccc(Cl)cn3)cc2)cc1` [Compound I-179] stands 6 nM; under `CCOC(=O)[C@H]1C[C@H](n2c(=O)[nH]/c(=N\c3ccc(Oc4ccccn4)cc3)n(Cc3ccc(C)cc3)c2=O)C1` [Compound I-180], 5 nM; under `CCOC(=O)[C@H]1C[C@@H](n2c(=O)[nH]/c(=N\c3ccc(Oc4ccccn4)cc3)n(Cc3ccc(C)cc3)c2=O)C1` [Compound I-181], 5 nM.

Regarding `Cc1ccc(Cn2c(=O)n([C@H]3C[C@H](C(=O)O)C3)c(=O)[nH]/c2=N\c2ccc(Oc3ccc(F)cn3)cc2)cc1` [Compound I-182], half-maximal inhibition (IC50) was put at 8 nM. To `Cc1ccc(Cn2c(=O)n([C@H]3C[C@@H](C(=O)O)C3)c(=O)[nH]/c2=N\c2ccc(Oc3ccc(F)cn3)cc2)cc1` [Compound I-183] belongs 12 nM; to `Cc1ccc(Cn2c(=O)n([C@H]3C[C@H](C(=O)O)C3)c(=O)[nH]/c2=N\c2ccc(Oc3ccccn3)cc2)cc1` [Compound I-184], 6 nM; to `Cc1ccc(Cn2c(=O)n([C@H]3C[C@@H](C(=O)O)C3)c(=O)[nH]/c2=N\c2ccc(Oc3ccccn3)cc2)cc1` [Compound I-185], 9 nM.

Broadly, the IC50 is the point on the concentration scale where inhibition reaches its midpoint. Low values mean higher potency, high ones lower potency.
